{"source": "patent US9604974B2", "about": "“Compounds as modulator of JAK-STAT pathway, methods and applications thereof” (UNIVERSITY OF MYSORE, priority 2015, dated 2017)", "key": {"STAT3": {"test_system": "STAT3", "experiment": "IL-6 induced STAT3 phosphorylation in Hep3B", "assay_type": "cell-based", "conditions": "10 μMol/L CIMO, IL-6 10 ng/mL", "description": "(§1) FIG. 3 depicts comparative study of cell viability between STAT3-siRNA transfected and Compound 1 (CIMO) treated HepG2 cells [A]. Correspondingly, Western Blot analysis is used to assess the levels of phospho-STAT3 and STAT3 in HepG2 cells with siRNA-mediated depletion STAT3 expression and on exposure to 4 μM CIMO. Whole cell extract is prepared and resolved on SDS-PAGE gel, electrotransferred onto nitrocellulose membrane, and probed for phospho-STAT3 and the same blot is stripped and reprobed with STAT3 antibody and Beta actin to verify equal protein loading. [B] showcases the modulation of STAT3 mediated transcription, α2-M promoter activity by Compound 1 (CIMO) in HepG2 cells. [C] depicts the inhibition of IL-6-induced phosphorylation of STAT3, JAK1 and JAK2 by Compound 1 (CIMO). Hep3B cells (5×10^5/mL) are treated with 10 μMol/L CIMO for the indicated times and then stimulated with IL-6 (10 ng/mL) for about 15 minutes. Whole-cell extracts are then prepared, resolved on SDS-PAGE gel, electrotransferred onto nitrocellulose membrane and probed with phospho-STAT3, phospho-JAK1 and phospho-JAK2 antibodies. The same blot is stripped and reprobed with STAT3, JAK1 and JAK2 antibody to verify equal protein loading. [D] and [E], showcases the suppression of STAT3 regulated gene products involved in cell proliferation and survival by Compound 1 (CIMO). […]"}, "phospho-STAT3 (Y705)": {"test_system": "phospho-STAT3 (Y705)", "experiment": "Western blot of constitutive phospho-STAT3 (Y705) in HepG2", "assay_type": "cell-based, human", "description": "FIG. 2 depicts the suppression of phospho-STAT3 by compound 1 (CIMO) in a dose dependent manner [A]. HepG2 cells (5×10^5/mL) are treated with the indicated concentrations of CIMO for 6 hours, after which whole-cell extracts are prepared and resolved on SDS-PAGE gel, electrotransferred onto nitrocellulose membrane, and probed for phospho-STAT3. The same blot is stripped and reprobed with STAT3 antibody to verify equal protein loading. […] HepG2 cells (5×10^5/mL) are treated with the indicated concentrations of AG490 for about 6 hours, after which Western Blotting is done as described for [A]. [C] depicts the suppression of phospho-STAT3 levels by Compound 1 (CIMO) in a time-dependent manner. HepG2 cells (5×10^5/mL) are treated with 10 μMol/L CIMO for the indicated times, after which Western blotting is done as described for [A]. [D] depicts that compound 1 (CIMO) has no effect on phospho-STAT3 (Ser-727) and STAT3 protein expression. HepG2 cells (5×10^5/mL) are treated with 10 μMol/L CIMO for the indicated times, after which Western Blotting is done as described for [A] and membrane is probed using antibodies against phospho-STAT3 (Ser-727) and STAT3. […] HepG2 cells (1×10^5/mL) are incubated with or without 10 μMol/L CIMO for about 6 hours and then analyzed for the intracellular distribution of STAT3 by immunocytochemistry. The same slides are counterstained for nuclei with Hoechst (50 ng/mL) for about 5 minutes and analyzed under an fluorescencemicroscope. […] HepG2 cells (5×10^5/mL) are treated with 10 μMol/L CIMO, after which whole-cell extracts are prepared, resolved in SDS-PAGE, electrotransferred onto nitrocellulose membrane, and probed with phospho-Src, phospho-JAK1 and phospho-JAK2 antibodies. The same blots are stripped and reprobed with Src, JAK1 and JAK2 antibodies to verify equal protein loading. [G] depicts the suppression of STAT3 DNA binding ability by Compound 1 (CIMO) in HepG2 cells. HepG2 cells are treated with 10 μMol/L CIMO for the indicated time, nuclear extracts are prepared, and 5 μg of the nuclear extract protein is used for ELISA-based DNA-binding assay.\nCIMO is tested towards the inhibition of constitutive activation of STAT3 in HepG2 cells by Western Blotting via antibodies recognising phospho-STAT3 (Y705). For detection of phospho-proteins, CIMO treated whole-cell extracts are lysed in lysis buffer [20 mM Tris (pH 7.4), 250 mM NaCl, 2 mM Ethylenediaminetetraacetic acid (pH 8.0), 0.1% Triton-X-100, 0.01 mg/ml aprotinin, 0.005 mg/ml leupeptin, 0.4 mM phenylmethanesulfonylfluoride, and 4 mM NaVO4). Lysates are then spun at 14,000 rpm for about 10 minutes to remove insoluble material and resolved on SDS gel. After electrophoresis, the proteins are electrotransferred to a nitrocellulose membrane, blocked with 5% non-fat milk, and probed with various antibodies (1:1000) overnight at about 4° C. The blot is washed, exposed to HRP-conjugated secondary antibodies for about 1 hour, and finally examined by chemiluminescence (ECL; GE Healthcare, Little Chalfont, Buckinghamshire, UK)."}, "JAK1": {"test_system": "JAK1", "experiment": "Western blot of constitutive phospho-JAK1 in HepG2", "assay_type": "cell-based, human", "conditions": "HepG2, 10 μMol/L CIMO"}, "[1]": {"test_system": "AGS (gastric cancer cell line)", "experiment": "MTT anti-proliferative assay, AGS", "assay_type": "cell-based", "conditions": "Homo sapiens", "description": "The anti-proliferative activity of Formula I compounds are studied on HepG2 cells using MTT assay. Briefly, the cells (2.5×10^4/ml) are incubated in triplicate in a 96-well plate in the presence or absence of different concentrations of compounds in a final volume of 0.2 ml up to 72 hours at 37° C. Thereafter, 20 μl MTT solution (5 mg/ml in PBS) is added to each well. After 2 hours of incubation at 37° C., 0.1 ml lysis buffer (20% SDS, 50% dimethyl-formamide) is added; incubation is continued overnight at 37° C.; and the optical density (OD) at 570 nm is measured by Tecan plate reader.\nAdditionally, Compound 1 is tested on a panel of six cell lines including Hep3B, PLC/PRF5, AGS (gastric cancer cell line), DU145 (prostrate cancer cell line), MDA MB231 (breast cancer cell line) and CAL27 (head and neck cancer cell line) cells."}, "JAK2": {"test_system": "JAK2", "experiment": "IL-6 induced JAK2 phosphorylation in Hep3B", "assay_type": "cell-based", "conditions": "10 μMol/L CIMO, IL-6 10 ng/mL", "description": "as §1"}}, "note": "Entries after “also recorded” stand apart in the source; their conditions may differ.", "data": [{"smiles": "COc1ccc(C2CNC(c3cn(Cc4ccc(-c5ccccc5C#N)cc4)c4ccccc34)OC23CCCCC3)cc1", "note": "(centres unmarked) [Compound 1]", "values": [{"measurement": "IL-6 induced phosphorylation of STAT3", "setting": "STAT3", "value": "substantially down-regulates"}, {"measurement": "time of maximum inhibition of phospho-STAT3", "setting": "phospho-STAT3 (Y705); HepG2", "value": 6, "unit": "h"}, {"measurement": "phospho-STAT3 levels versus DMSO control", "setting": "phospho-STAT3 (Y705); HepG2, 4 μM CIMO", "value": "decreased phospho-STAT3 levels"}, {"measurement": "protein levels of total STAT3 versus DMSO control", "setting": "phospho-STAT3 (Y705); HepG2, 4 μM CIMO", "value": "not significantly altered"}, {"measurement": "concentration of maximum inhibition of phospho-STAT3", "setting": "phospho-STAT3 (Y705); HepG2, 6 hours", "value": 20, "unit": "µM"}, {"measurement": "concentration for comparable phospho-STAT3 effect versus AG490", "setting": "phospho-STAT3 (Y705); HepG2, CIMO compared to AG490", "value": "ten-fold lower concentration"}, {"measurement": "levels of phospho-STAT3 (Y705)", "setting": "phospho-STAT3 (Y705); HepG2, Western blot, dose and time course, listed as CIMO", "value": "substantially downregulated in a dose- and time-dependent manner; also recorded: completely inhibits"}, {"measurement": "STAT3 protein expression", "setting": "phospho-STAT3 (Y705); HepG2, same blots reprobed", "value": "remains unchanged"}, {"measurement": "phosphorylation of JAK1", "setting": "JAK1", "value": "significant inhibition"}, {"measurement": "IC50", "setting": "[1]", "value": 36.9, "unit": "µM"}, {"measurement": "IL-6 induced phosphorylation of JAK2", "setting": "JAK2", "value": "substantially down-regulates"}]}]}
